Source: patent publication US20220169603A1, “NOVEL SALTS, CRYSTALLINE FORMS AND PREMIX OF HYPOLIPIDEMIC AGENT” (Cadila Healthcare Ltd., priority 2019, published 2022)

Legend:
[1] = Stability of selected compounds measured by HPLC purity over 6 months; type: physicochemical
Description: • Column: YMC-pack ODS-AM (type L1) or equivalent; 250×4.6 mm, 5 μm • Wave length: 294 nm • Column temp.: 30° C. • Mobile phase: [Ammonium acetate buffer: Acetonitrile]/[55:45] • Flow rate: 1 ml/min • Injection vol.: 5 μl • Retention time: About 10 mints. • Run time: 60 mints.

[2] = system: serum triglyceride levels; assay: Comparative efficacy study (triglyceride lowering effects) in Swiss albino mice; type: in vivo; details: for % Change Day 6 vs Day 0 (serum triglycerides) / % Change Vs control (serum triglycerides) / Serum triglycerides Day 6: 1 mg/kg free acid equivalent, oral, once daily for six days; for % Change Vs control (serum triglycerides): vs vehicle control; for reduction in serum triglyceride levels as compared to vehicle control group: p.o., six days; for Serum triglycerides Day 0: Day 0, before treatment, male Swiss albino mice, 6 per group; for Serum triglycerides Day 6: Day 6, one hr after dose
Description: The in-vivo efficacy of test compound was evaluated in Swiss albino mice. Anti-dyslipidemic drugs have been reported to lower circulating levels of triglyceride in Swiss albino mice through their effect on genes involved in the peroxisomal fatty acid beta oxidation via PPAR alpha agonism. Therefore, this species is preferred for evaluation of their efficacy in lowering circulating triglyceride (TG) levels.
In this experiment, ten to eleven week old male Swiss albino mice were issued and kept for acclimatization. Near the end of the acclimatization period, animals judged to be suitable for testing were bled under light anesthesia and serum samples were analyzed for serum triglyceride levels.
Test compounds were formulated at specified doses in vehicle (MiliQ Water). The animals were dosed orally, once daily in the morning during six days, starting from next day of grouping with vehicle or test compound. The animals were weighed prior to dosing, and based on these weights; the volume of administration was calculated. The volume of formulation administered to each mouse was 10 ml/kg body weight.
On day 6, one-hr after the dose administration, blood (0.25 ml) was collected from retro-orbital sinus of the anaesthetized animals. Serum was separated by centrifugation. Serum was analyzed for triglyceride levels. Analysis for serum triglyceride levels was performed using Spectrophotometer and commercially available kit. Calculations for determination of % change and % reduction in serum TG levels (Table 3) were performed using MS Excels sheet.

[3] = Stability study of Saroglitazar free acid (purity and % of impurity on storage); type: physicochemical
Excerpt: Further the Saroglitazar free acid as disclosed in WO03009841 was always obtained in liquid form.

| Molecule | HPLC (% purity) At 0 month [1] [%] | HPLC (% purity) After 6 months [1] [%] | % Change Day 6 vs Day 0 (serum triglycerides) [2] [%] | % Change Vs control (serum triglycerides) [2] [%] | reduction in serum triglyceride levels as compared to vehicle control group ([2]; 1 mg/kg) | Serum triglycerides Day 0 [2] [mg/dL] | Serum triglycerides Day 6 [2] [mg/dL] | Serum triglycerides Day 6 ([2]; 1 mg/kg) [mg/dL] | further results |
| --- | --- | --- | --- | --- | --- | --- | --- | --- | --- |
| CCO[C@@H](Cc1ccc(OCCn2c(C)ccc2-c2ccc(SC)cc2)cc1)C(=O)[O-].[Li+] [Example 12, (S)-2-ethoxy-3-(4-(2-(2-methyl-5-(4-(methylthio)phenyl)-1H-pyrrol-1-yl)ethoxy)phenyl)propanoic Acid Lithium Salt] | 96.82 | 95.50 | – | – | – | – | – | – | – |
| CCO[C@@H](Cc1ccc(OCCn2c(C)ccc2-c2ccc(SC)cc2)cc1)C(=O)O [Saroglitazar, (S) 2-Ethoxy-3-(4-{2-[2-methyl-5-(4-methylthiophenyl)-pyrrol-1-yl]-ethoxy}-phenyl)-propionic acid] | – | – | 8.7 ± 9.0 | −38.2 ± 5.1 | 38.2% | 61.8 ± 7.4 | 65.9 ± 7.7 | – | % of impurity (RT-~22.0 min) AFTER 6 DAYS ([3]; at 0-5° C.): (0.598%); PURITY AFTER 6 DAYS ([3]; at 0-5° C.): 98.44%; % of impurity (RT-~22.0 min) AFTER 17 DAYS ([3]; at 0-5° C.): (0.631%); PURITY AFTER 17 DAYS ([3]; at 0-5° C.): 98.39%; % of impurity (RT-~22.0 min), initial ([3]; at 0-5° C.): (0.573%); INITIAL PURITY ([3]; at 0-5° C.): 98.11%; % of impurity (RT-~22.0 min) AFTER 6 DAYS ([3]; at 25~30° C.): (0.770%); PURITY AFTER 6 DAYS ([3]; at 25~30° C.): 98.12%; % of impurity (RT-~22.0 min) AFTER 17 DAYS ([3]; at 25~30° C.): (0.850%); PURITY AFTER 17 DAYS ([3]; at 25~30° C.): 97.87%; % of impurity (RT-~22.0 min), initial ([3]; at 25~30° C.): (0.573%); INITIAL PURITY ([3]; at 25~30° C.): 98.11%; stability (in words) ([3]; room temperature conditions): less stable |
| (S)-2-ethoxy-3-(4-(2-(2-methyl-5-(4-(methylthio)phenyl)-1H-pyrrol-1-yl)ethoxy)phenyl)propanoic Acid Magnesium Salt [Example 32] | 97.10 | 95.78 | −44.5 ± 10.4 | −68.4 ± 5.9 | – | 61.9 ± 7.7 | – | 32.6 ± 4.9 | – |
| (S)-2-ethoxy-3-(4-(2-(2methyl-5-(4-(methylthio)phenyl)-1H-pyrrol-1-yl)ethoxy)phenyl)propanoic Acid Calcium Salt [Example 16] | 96.83 | 96.76 | −33.9 ± 14.3 | −62.4 ± 8.1 | 62.4% | 61.3 ± 6.4 | 38.2 ± 5.6 | – | – |
| (S)-2-ethoxy-3-(4-(2-(2-methyl-5-(4-(methylthio)phenyl)-1H-pyrrol-1-yl)ethoxy)phenyl)propanoic Acid Magnesium Salt [Example 29] | 97.68 | 94.63 | −35.5 ± 7.5 | −63.3 ± 4.3 | – | 59.4 ± 5.0 | – | 37.0 ± 3.5 | – |
| (S)-2-ethoxy-3-(4-(2-(2-methyl-5-(4-(methylthio)phenyl)-1H-pyrrol-1-yl)ethoxy)phenyl)propanoic Acid Aluminum Salt [Example 14] | 96.79 | 94.94 | −35.1 ± 10.9 | −63.1 ± 6.2 | 63,1% | 61.9 ± 7.4 | 37.4 ± 3.4 | – | – |
| (S)-2-ethoxy-3-(4-(2- (2-methyl-5-(4-(methylthio)phenyl)-1H-pyrrol-1-yl)ethoxy)phenyl)propanoic Acid Magnesium Salt [Example 31] | 96.95 | 95.55 | – | – | – | – | – | – | – |
| (S)-2-ethoxy-3-(4-(2-(2-methyl-5-(4-(methylthio)phenyl)-1H-pyrrol-1-yl)ethoxy)phenyl)propanoic Acid Magnesium Salt [Example 28] | 93.08 | 90.72 | −47.7 ± 10.2 | −70.2 ± 5.8 | – | 64.3 ± 8.6 | – | 30.0 ± 3.8 | – |
| CCO[C@@H](Cc1ccc(OCCn2c(C)ccc2-c2ccc(SC)cc2)cc1)C(=O)[O-].[Na+] [Example 6, (S)-2-ethoxy-3-(4-(2-(2-methyl-5-(4-(methylthio)phenyl)-1H-pyrrol-1-yl)ethoxy)phenyl)propanoic Acid Sodium Salt] | – | – | −34.4 ± 10.5 | −62.7 ± 6.0 | 62.7% | 59.6 ± 5.4 | 39.0 ± 7.5 | – | – |
